# System: E. coli ATCC25922
# Assay: Antibacterial activity in combination with minocycline (growth inhibition)
# Assay type: cell-based
# Conditions: Escherichia coli, ATCC25922, compound at 25 μM; minocycline 0.25 μg/mL; OD625 23 h minus 1 h; read-out: residual growth of E. coli ATCC25922 (% of uninhibited control) with minocycline
# Description: Antibacterial activity in combination with minocycline or with linezolid
# Inhibition of growth was measured with E. coli ATCC25922 and P. aeruginosa PAO1 in a 96-well plate format. Cation-adjusted Müller-Hinton broth (caMHB) was inoculated with an overnight culture and incubated at 37° C. on a shaker until OD625 reached 0.6 to 0.7. Density was adjusted to OD600=0.5 by addition of caMHB. 35 μL of the suspension were diluted to 35 mL with caMHB and supplemented with minocycline at the subinhibitory doses of 0.25 μg/mL for E. coli and 8 μg/mL for P. aeruginosa or with linezolid at the subinhibitory dose of 128 μg/mL for E. coli and P. aeruginosa. Each well contained 1 μL of test compound in 100 μL caMHB with minocycline or with linezolid.
# Plates were incubated at 37° C. on a plate shaker. OD625 was measured at 1 h, 6 h, and at 23 h.
# The difference between OD at 23 h and at 1 h was taken as measure for cell density and compared to controls without inhibitor (i.e. uninhibited control). Results were expressed as residual growth (% of uninhibited control). Enhancement of minocycline or linezolid activity caused reduced residual growth.
row,SMILES,activity at 25 µM [%]
1,O=C(O)c1ccc(COc2cc(CNCC3CCNC3)cc(OCc3ccc(Cl)cc3Br)c2)cc1 (stereo not shown) [Example 205],≤ 10
2,Ic1ccc(COc2cccc(CNCC3CCNC3)c2)cc1 (stereo not shown) [Example 207],≤ 10
3,Clc1ccc(/C=C/c2cc(Cl)ccc2OCCNCC2CNC2)c(Br)c1 [Example 209],≤ 10
4,Clc1ccc(/C=C/c2cc(Cl)ccc2OCCNCC2CCNC2)c(Br)c1 (stereo not shown) [Example 210],≤ 10
5,C=CCOc1ccc(OCCNCC2CCNC2)c(/C=C/c2ccc(Cl)cc2Br)c1 (stereo not shown) [Example 211],≤ 10
6,C=CCOc1ccc(OCCNCC2CNC2)c(/C=C/c2ccc(Cl)cc2Br)c1 [Example 212],≤ 10
7,C=CCOc1ccc(OCCCNCC2CCNC2)c(/C=C/c2ccc(Cl)cc2Br)c1 (stereo not shown) [Example 213],≤ 10
8,C=CCOc1ccc(OCCCNCC2CNC2)c(/C=C/c2ccc(Cl)cc2Br)c1 [Example 214],≤ 10
9,CC(C)(C)c1ccc(COc2ccc(CNCC3CCNC3)cc2)cc1 (stereo not shown) [Example 215],≤ 10
10,CC(C)(C)c1ccc(COc2cccc(CNCC3CCNC3)c2)cc1 (stereo not shown) [Example 216],≤ 10
11,CC(C)c1cc(CNCC2CCNC2)cc(OCc2ccc(Cl)cc2Br)c1 (stereo not shown) [Example 217],≤ 10
12,CC(C)(C)c1cc(CNCC2CCNC2)cc(OCc2ccc(Cl)cc2Br)c1 (stereo not shown) [Example 218],≤ 10
13,CC(C)c1cc(CNCC2CNC2)cc(OCc2ccc(Cl)cc2Br)c1 [Example 224],≤ 10
14,CC(C)(C)c1cc(CNCC2CNC2)cc(OCc2ccc(Cl)cc2Br)c1 [Example 225],≤ 10
15,CC(C)(C)c1ccc(COc2cc(Cl)cc(CNC3CCNCC3)c2)cc1 [Example 226],≤ 10
16,CC(C)(C)c1ccc(COc2cc(Cl)cc(CNCC3CCNC3)c2)cc1 (stereo not shown) [Example 227],≤ 10
17,CC(C)(C)c1ccc(COc2cc(Cl)cc(CNCC3CNC3)c2)cc1 [Example 228],≤ 10
18,Clc1ccc(COc2cccc(CNCC3CNC3)c2)c(I)c1 [Example 229],≤ 10
19,Clc1ccc(COc2cccc(CNCC3CCNC3)c2)c(I)c1 (stereo not shown) [Example 230],≤ 10
20,CC(C)(C)c1ccc(COc2ccc(CNCC3CNC3)cc2)cc1 [Example 231],≤ 10
21,CC(C)(C)c1ccc(/C=C/c2cccc(CNCC3CCNC3)c2)cc1 (stereo not shown) [Example 233],≤ 10
22,CC(C)(C)c1ccc(/C=C/c2cccc(CNCC3CNC3)c2)cc1 [Example 234],≤ 10
23,CC(C)(C)c1ccc(/C=C\c2cccc(CNC3CCNCC3)c2)cc1 [Example 235],≤ 10
24,"CC(C)(C)c1ccc(/C=C\c2cccc(CNCC3CCNC3)c2)cc1 (stereo not shown) [Example 236, 1-[3-[(Z)-2-(4-tert-butylphenyl)vinyl]phenyl]-N-(pyrrolidin-3-ylmethyl)methanamine]",≤ 10

row,SMILES,activity at 25 µM [%]
1,CC(C)(C)c1ccc(/C=C\c2cccc(CNCC3CNC3)c2)cc1 [Example 237],≤ 10
2,Clc1ccc(COc2cc(CNCC3CCNC3)cc(OCCN3CCOCC3)c2)c(Br)c1 (stereo not shown) [Example 238],≤ 10
3,Clc1ccc(COc2cc(CNCC3CNC3)cc(OCCN3CCOCC3)c2)c(Br)c1 [Example 239],≤ 10
4,CC(C)(C)c1ccc(/C=C/c2cccc(CNC3CCNCC3)c2)cc1 [Example 240],≤ 10
5,Clc1ccc(/C=C\c2cc(CNCC3CCNC3)cc(OCCN3CCOCC3)c2)c(Br)c1 (stereo not shown) [Example 241],≤ 10
6,Clc1ccc(/C=C\c2cc(CNCC3CNC3)cc(OCCN3CCOCC3)c2)c(Br)c1 [Example 242],≤ 10
7,Clc1ccc(/C=C/c2cc(CNCC3CNC3)cc(OCCN3CCOCC3)c2)c(Br)c1 [Example 243],≤ 10
8,Clc1ccc(/C=C/c2cc(CNCC3CCNC3)cc(OCCN3CCOCC3)c2)c(Br)c1 (stereo not shown) [Example 246],≤ 10
9,C[N+]1(C)CC(OCCOc2cc(CNCC3CCNC3)cc(OCc3ccc(Cl)cc3Br)c2)CC1C(=O)O (stereo not shown) [Example 247],≤ 10
10,C[N+]1(C)CC(OCCOc2cc(CNCC3CNC3)cc(OCc3ccc(Cl)cc3Br)c2)CC1C(=O)O (stereo not shown) [Example 248],≤ 10
11,CN1CC(OCCOc2cc(CNCC3CNC3)cc(OCc3ccc(Cl)cc3Br)c2)CC1C(=O)O (stereo not shown) [Example 249],≤ 10
12,Clc1ccc(COc2cc(CNCC3CNC3)cc(OCCc3c[nH]cn3)c2)c(Br)c1 [Example 252],≤ 10
13,Clc1ccc(/C=C\c2cc(CNCC3CCNC3)cc(OCCc3ccncc3)c2)c(Br)c1 (stereo not shown) [Example 253],≤ 10
14,Clc1ccc(/C=C/c2cc(CNCC3CCNC3)cc(OCCc3ccncc3)c2)c(Br)c1 (stereo not shown) [Example 254],≤ 10
15,Clc1ccc(/C=C\c2cc(CNCC3CNC3)cc(OCCc3c[nH]cn3)c2)c(Br)c1 [Example 255],≤ 10
16,Clc1ccc(COc2cc(CNCC3CNC3)cc(OCCc3ccncc3)c2)c(Br)c1 [Example 256],≤ 10
17,Clc1ccc(/C=C\c2cc(CNCC3CNC3)cc(OCCc3ccncc3)c2)c(Br)c1 [Example 257],≤ 10
18,Clc1ccc(COc2cc(CNCC3CCNC3)cc(OCCc3ccncc3)c2)c(Br)c1 (stereo not shown) [Example 258],≤ 10
19,Clc1ccc(/C=C\c2cc(CNCC3CCNC3)cc(OCCc3c[nH]cn3)c2)c(Br)c1 (stereo not shown) [Example 259],≤ 10
20,Clc1ccc(/C=C/c2cc(CNCC3CNC3)cc(OCCc3ccncc3)c2)c(Br)c1 [Example 260],≤ 10
21,Clc1ccc(/C=C/c2cc(CNCC3CNC3)cc(OCCc3c[nH]cn3)c2)c(Br)c1 [Example 261],≤ 10
22,Clc1ccc(/C=C/c2cc(CNCC3CCNC3)cc(OCCc3c[nH]cn3)c2)c(Br)c1 (stereo not shown) [Example 262],≤ 10
23,CC(C)COc1cc(CNCC2CCNC2)cc(OCc2ccc(C(F)(F)F)cc2)c1 (stereo not shown) [Example 264],≤ 10
24,CC(C)COc1cc(CNCC2CCNC2)cc(OCc2ccc(C(F)(F)F)cc2C(F)(F)F)c1 (stereo not shown) [Example 265],≤ 10

row,SMILES,activity at 25 µM [%]
1,COc1cc(C#N)ccc1COc1cc(CNCC2CCNC2)cc(OCC(C)C)c1 (stereo not shown) [Example 266],≤ 10
2,CC(C)COc1cc(CNCC2CCNC2)cc(OCc2ccc(Cl)cn2)c1 (stereo not shown) [Example 267],≤ 10
3,CC(C)COc1cc(CNCC2CCNC2)cc(OCc2ccc(F)cc2Br)c1 (stereo not shown) [Example 268],≤ 10
4,CC(C)COc1cc(CNCC2CCNC2)cc(OCc2ccc(Cl)nc2)c1 (stereo not shown) [Example 269],≤ 10
5,CC(C)COc1cc(CNCC2CCNC2)cc(OCc2ccc(C(F)(F)F)cc2F)c1 (stereo not shown) [Example 271],≤ 10
6,C=CCOc1cc(/C=C/c2ccc(F)cc2)cc(CNCC2CNC2)c1 [Example 272],≤ 10
7,CC(C)COc1cc(CNCC2CNC2)cc(OCc2ccc(C(C)(C)C)cc2)c1 [Example 274],≤ 10
8,C=CCOc1cc(/C=C/c2ccc(C(F)(F)F)cc2)cc(CNCC2CNC2)c1 [Example 275],≤ 10
9,CC(C)COc1cc(CNCC2CCNC2)cc(OCc2ccc(F)cc2C(F)(F)F)c1 (stereo not shown) [Example 280],≤ 10
10,CC(C)COc1cc(CNCC2CCNC2)cc(OCc2ccc(Cl)cc2C(F)(F)F)c1 (stereo not shown) [Example 281],≤ 10
11,CC(C)COc1cc(CNCC2CCNC2)cc(OCc2ccc(C(F)(F)F)cc2Br)c1 (stereo not shown) [Example 282],≤ 10
12,CC(C)COc1cc(CNCC2CCNC2)cc(OCc2ccc(F)nc2F)c1 (stereo not shown) [Example 283],≤ 10
13,C=CCOc1cc(/C=C/c2ccc(C#N)cc2)cc(CNCC2CNC2)c1 [Example 284],≤ 10
14,CC(C)COc1cc(CNCC2CCNC2)cc(OCc2ccc(C(F)(F)F)cn2)c1 (stereo not shown) [Example 289],≤ 10
15,CC(C)COc1cc(CNCC2CCNC2)cc(OCc2ccc(C(C)(C)C)cc2Br)c1 (stereo not shown) [Example 290],≤ 10
16,CC(C)COc1cc(CNCC2CCNC2)cc(OCc2ccc(C(F)(F)F)nc2)c1 (stereo not shown) [Example 291],≤ 10
17,C=CCOc1cc(/C=C/c2ccc(C(C)(C)C)cc2)cc(CNCC2CNC2)c1 [Example 292],≤ 10
18,C=CCOc1cc(/C=C/c2ccc(OC)cc2)cc(CNCC2CNC2)c1 [Example 294],≤ 10
19,CC(C)(C)c1ccc(COc2cc(CNCC3CNC3)cc(C(C)(C)C)c2)cc1 [Example 295],≤ 10
20,C=CCOc1cc(CNCC2CNC2)cc(OCc2ccc(C(C)(C)C)cc2)c1 [Example 296],≤ 10
21,CC(C)(C)c1ccc(COc2cc(CNCC3CNC3)cc(OCc3ccccc3)c2)cc1 [Example 297],≤ 10
22,C=CCOc1cc(/C=C/c2ccc(C#N)c(C(F)(F)F)c2)cc(CNCC2CNC2)c1 [Example 299],≤ 10
23,C=CCOc1cc(/C=C/c2ccc(C#N)c(C(F)(F)F)c2)cc(CNCC2CCNC2)c1 (stereo not shown) [Example 300],≤ 10
24,N#Cc1ccc(/C=C/c2cccc(CNCC3CCNC3)c2)cc1C(F)(F)F (stereo not shown) [Example 301],≤ 10

# Same assay, conditions: Escherichia coli, ATCC25922, compound at 50 μM; minocycline 0.25 μg/mL; OD625 23 h minus 1 h; read-out: residual growth of E. coli ATCC25922 (% of uninhibited control) with minocycline
row,SMILES,activity at 50 µM [%]
1,CC(C)COc1cc(CNCC2CCNC2)cc(OCc2cccnc2Br)c1 (stereo not shown) [Example 278],≤ 50

# — patent US10464896B2, “Efflux-pump inhibitors and therapeutic uses thereof” (Basilea Pharmaceutica International AG, priority 2015, dated 2019)
